Data on 39 molecules can be found in patent US8309730B2, “Nonsteroidal compounds useful as modulators of glucocorticoid receptor AP-1 and/or NF-kappab acitivity and use thereof” (Bristol-Myers Squibb Company, priority 2007, dated 2012).

Experiment [1] has as its target T1, human glucocorticoid receptor (Homo sapiens, UniProt P04150).
T1 construct: purified human recombinant full-length glucocorticoid receptor (2 nM); purchased Invitrogen Part #2893
T1 sequence (P04150 1-777): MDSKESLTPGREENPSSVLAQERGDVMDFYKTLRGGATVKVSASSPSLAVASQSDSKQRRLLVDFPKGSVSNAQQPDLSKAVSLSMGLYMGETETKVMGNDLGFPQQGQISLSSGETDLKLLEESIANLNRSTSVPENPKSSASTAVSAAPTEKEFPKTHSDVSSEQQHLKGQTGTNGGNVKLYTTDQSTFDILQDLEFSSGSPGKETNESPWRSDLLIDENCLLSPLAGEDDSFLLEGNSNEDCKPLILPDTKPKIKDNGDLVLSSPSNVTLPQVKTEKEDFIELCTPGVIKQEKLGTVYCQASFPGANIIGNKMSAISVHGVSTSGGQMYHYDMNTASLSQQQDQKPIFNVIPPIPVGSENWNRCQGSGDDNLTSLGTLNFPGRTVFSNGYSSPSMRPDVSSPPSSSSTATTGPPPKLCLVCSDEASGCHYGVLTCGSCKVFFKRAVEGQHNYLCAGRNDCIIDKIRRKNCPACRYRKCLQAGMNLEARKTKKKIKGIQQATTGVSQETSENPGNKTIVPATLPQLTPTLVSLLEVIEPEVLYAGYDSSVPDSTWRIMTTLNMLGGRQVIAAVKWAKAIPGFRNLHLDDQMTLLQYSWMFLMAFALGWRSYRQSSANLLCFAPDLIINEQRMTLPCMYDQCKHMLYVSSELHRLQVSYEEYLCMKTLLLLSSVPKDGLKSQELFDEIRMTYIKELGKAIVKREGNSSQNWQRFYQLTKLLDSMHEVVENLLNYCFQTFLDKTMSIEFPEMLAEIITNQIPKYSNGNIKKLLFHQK
The experiment is described as follows: Glucocorticoid Receptor Binding Assay (I), fluorescence polarization competitor kit. As to conditions: purified human recombinant full-length GR, Fluormone GS Red, 2 h room temperature. Here is the method:
Briefly, purified human recombinant full-length glucocorticoid receptor (2 nM) was mixed with fluorescently labeled glucocorticoid (1 nM Fluormone GS Red) in the presence or absence of test compound. After two hours incubation at room temperature in the dark, the fluorescence polarization (FP) of the sample was measured. […] Test compounds were analyzed in the concentration range from 8.5E-05 μM to 5 μM.

The subject of experiment [2] is AP-1 induced transcriptional activity. The experiment can be described thus: Cellular Transrepressional Assay (AP-1 luciferase reporter in A549 cells). The note with it: Homo sapiens, A549 cells stably transfected with pAP-1-Luc, 10 ng/ml PMA, 7 hours; for Emax: maximum inhibition, read-out: AP-1 Max % inh (Cellular Transrepression Assay); for EC50: read-out: AP-1 EC50, nM (Cellular Transrepression Assay). In kind it is cell-based. Here is the method: To measure the ability of test molecules to inhibit AP-1 induced transcriptional activity we utilized an A549 cell which was stably transfected with a plasmid containing 7×AP-1 DNA binding sites (pAP-1-Luc plasmid, Stratagene Co. La Jolla, Calif.) followed by the gene for luciferase. Cells were activated with 10 ng/ml of phorbol myristic acid (PMA) plus or minus test molecules for 7 hours. After 7 hours a luciferase reagent was added to measure luciferase enzymatic activity in the cell. After a 10 minute incubation of luciferase reagent with cells, luminescence was measured in a TopCount luminescence counter. Repression of AP-1 activity was calculated as the percentage decrease in the signal induced by PMA alone. Test molecules were analyzed in the concentration range from 0.1 nM to 40 μM. EC50 values were determined by using standard curve fitting methods such as Excel fit (Microsoft Co.).

As for `C[C@]12Cn3cnc(-c4ccccc4)c3C=C1CCC[C@@H]2[C@H](O)c1ccccc1` (racemic) [Example 12], in experiment [1], the inhibition constant (Ki) was determined as 86.3 nM.

Turning to `COc1ccc([C@H](O)[C@H]2CCCC3=Cc4c(-c5ccccc5)ncn4C[C@@]32C)cc1` (racemic) [Example 16], the Ki in experiment [1] came out at 90.1 nM. On the same count and under the same terms, the value for `COc1ccc([C@@H](O)[C@H]2CCCC3=Cc4c(-c5ccccc5)ncn4C[C@@]32C)cc1` (racemic) [Example 17] was 93.4 nM; that for `C=CC[C@H](O)[C@H]1CCCC2=Cc3c(-c4ccccc4)ncn3C[C@@]21C` (racemic) [Example 18] was 26.9 nM. The same measure, in the same setting: the value for `C=CC[C@@H](O)[C@H]1CCCC2=Cc3c(-c4ccccc4)ncn3C[C@@]21C` (racemic) [Example 19] was 22.3 nM; that for `C[C@]12Cn3cnc(-c4ccccc4)c3C=C1CCC[C@@H]2[C@@H](O)Cc1ccccc1` (racemic) [Example 20] was 18.3 nM. Still for that read-out and setting: the value for `C[C@]12Cn3cnc(-c4ccccc4)c3C=C1CCC[C@@H]2[C@@H](O)C1CCCCC1` (racemic) [Example 21] was 20.2 nM.

Turning to `COc1cccc([C@H](O)[C@H]2CCCC3=Cc4c(-c5ccccc5)ncn4C[C@@]32C)c1` (racemic) [Example 22], the inhibition constant (Ki) in experiment [1] came to 94.4 nM. Same read-out and setting: the same measure for `COc1cccc([C@@H](O)[C@H]2CCCC3=Cc4c(-c5ccccc5)ncn4C[C@@]32C)c1` (racemic) [Example 23]: 57.5 nM; for `C[C@H](O)[C@H]1CCCC2=Cc3c(-c4ccccc4)ncn3C[C@@]21C` (racemic) [Example 24]: 364 nM. Turning to `C[C@@H](O)[C@H]1CCCC2=Cc3c(-c4ccccc4)ncn3C[C@@]21C` (racemic) [Example 25], in experiment [1], the inhibition constant (Ki) came to 202 nM.

For `C[C@]12Cn3cnc(-c4ccccc4)c3C=C1CCC[C@@H]2C(=O)c1ccccc1` (racemic) [Example 33], the Ki in experiment [1] is more than 1150 nM. Still for that read-out and setting: the same measure for `C[C@]12Cn3cnc(-c4ccccc4)c3C=C1CCC[C@@H]2C(=O)c1csc2ccccc12` (racemic) [Example 34]: more than 1150 nM; for `C[C@]12Cn3cnc(-c4ccccc4)c3C=C1CCC[C@@H]2[C@](C)(O)c1ccccc1` (racemic) [Example 35]: 6.4 nM. The same measure, in the same setting: the value for `CC[C@@](O)(c1ccccc1)[C@H]1CCCC2=Cc3c(-c4ccccc4)ncn3C[C@@]21C` (racemic) [Example 36] was 8.71 nM; that for `CC[C@@](O)(c1csc2ccccc12)[C@H]1CCCC2=Cc3c(-c4ccccc4)ncn3C[C@@]21C` (racemic) [Example 37] was 209 nM. The same measure, in the same setting: the same measure for `C[C@]12Cn3cnc(-c4ccccc4)c3C=C1CCC[C@@H]2[C@](O)(c1csc2ccccc12)C(F)(F)F` (racemic) [Example 38]: 111 nM; for `CC12Cn3cnc(-c4ccc(F)cc4)c3C=C1CCCC2(O)CCc1ccccc1` (racemic) [Example 102]: 19.7 nM; for `CC12Cn3cnc(-c4ccc(F)cc4)c3C=C1CCCC2(O)c1ccc(Cl)cc1` (racemic) [Example 103]: 216 nM.

For `C[C@]12Cn3cnc(-c4ccccc4)c3C=C1CCC[C@@H]2[C@@H](O)c1ccccc1` (single isomer, unassigned) [Example 13], the Ki in experiment [1] is more than 1150 nM. Still for that read-out and setting: the value for `C[C@]12Cn3cnc(-c4ccccc4)c3C=C1CCC[C@@H]2[C@@H](O)c1ccccc1` (single isomer, unassigned) [Example 14] was 65 nM. Take `C[C@]12Cn3cnc(-c4ccccc4)c3C=C1CCC[C@@H]2[C@H](O)c1csc2ccccc12` (single isomer, unassigned) [Example 28]: in experiment [1], the Ki was 493 nM. On the same count and under the same terms, the value for `C[C@]12Cn3cnc(-c4ccccc4)c3C=C1CCC[C@@H]2[C@@H](O)c1csc2ccccc12` (single isomer, unassigned) [Example 30] was 22.5 nM; that for `C[C@]12Cn3cnc(-c4ccccc4)c3C=C1CCC[C@@H]2[C@](C)(O)c1csc2ccccc12` (single isomer, unassigned) [Example 32] was more than 1150 nM. The same measure, in the same setting: the same measure for `C[C@]12Cn3cnc(-c4ccc(F)cc4)c3C=C1CCC[C@@H]2C(=O)c1csc2ccccc12` (single isomer, unassigned) [Example 43]: more than 1150 nM; for `C[C@]12Cn3cnc(-c4ccc(F)cc4)c3C=C1CCC[C@@H]2C(=O)c1csc2ccccc12` (single isomer, unassigned) [Example 44]: more than 1150 nM; for `C[C@]12Cn3cnc(-c4ccc(F)cc4)c3C=C1CCC[C@@H]2[C@](C)(O)c1csc2ccccc12` (single isomer, unassigned) [Example 45]: 73.2 nM. Consider `C[C@]12Cn3cnc(-c4ccc(F)cc4)c3C=C1CCC[C@@H]2[C@](C)(O)c1csc2ccccc12` (single isomer, unassigned) [Example 46], for which, in experiment [1], the Ki came out at 1.43 nM. Still for that read-out and setting: the same measure for `CO[C@](C)(c1cccs1)[C@H]1CCCC2=Cc3c(-c4ccc(F)cc4)ncn3C[C@@]21C` [Example 2, (5aR,6S)-1-(4-Fluorophenyl)-6-((S)-1-methoxy-1-(thiophen-2-yl)ethyl)-5a-methyl-5,5a,6,7,8,9-hexahydroimidazo[1,5-b]isoquinoline]: 69.8 nM; for `C[C@]12Cn3cnc(-c4ccc(F)cc4)c3C=C1CCC[C@@H]2CO` [Example 4a, ((5aR,6S)-1-(4-Fluorophenyl)-5a-methyl-5,5a,6,7,8,9-hexahydroimidazo[1,5-b]isoquinolin-6-yl)methanol]: 111 nM. Same read-out and setting: the same measure for `C[C@]12Cn3cnc(-c4ccc(F)cc4)c3C=C1CCC[C@@H]2CNc1nccs1` [Example 4b, N-(((5aR,6S)-1-(4-fluorophenyl)-5a-methyl-5,5a,6,7,8,9-hexahydroimidazo[1,5-b]isoquinolin-6-yl)methyl)thiazol-2-amine]: 215 nM; for `C[C@]12Cn3cnc(-c4ccc(F)cc4)c3C=C1CCC[C@@H]2CC(=O)Nc1nncs1` [Example 6, 2-((5aR,6R)-1-(4-fluorophenyl)-5a-methyl-5,5a,6,7,8,9-hexahydroimidazo[1,5-b]isoquinolin-6-yl)-N-(1,3,4-thiadiazol-2-yl)acetamide]: 7.13 nM; for `CC(C)(C)NC(=O)NCC[C@H]1CCCC2=Cc3c(-c4ccc(F)cc4)ncn3C[C@@]21C` [Example 7, 1-tert-Butyl-3-(2-((5aR,6R)-1-(4-fluorophenyl)-5a-methyl-5,5a,6,7,8,9-hexahydroimidazo[1,5-b]isoquinolin-6-yl)ethyl)urea]: 95.7 nM. On to `C[C@]12Cn3cnc(-c4ccc(F)cc4)c3C=C1CCC[C@@H]2[C@](C)(O)c1cccc(S(C)(=O)=O)c1` [Example 8a, (S)-1-((5aR,6S)-1-(4-fluorophenyl)-5a-methyl-5,5a,6,7,8,9-hexahydroimidazo[1,5-b]isoquinolin-6-yl)-1-(3-(methylsulfonyl)phenyl)ethanol], for which the Ki in experiment [1] was determined as 2.12 nM. On the same count and under the same terms, the value for `C[C@]12Cn3cnc(-c4ccc(F)cc4)c3C=C1CCC[C@@H]2[C@](C)(O)c1ncccn1` [Example 11, (S)-1-((5aR,6S)-1-(4-Fluorophenyl)-5a-methyl-5,5a,6,7,8,9-hexahydroimidazo[1,5-b]isoquinolin-6-yl)-1-(pyrimidin-2-yl)ethanol] was 68.2 nM; that for `CC(=O)[C@H]1CCCC2=Cc3c(-c4ccccc4)ncn3C[C@@]21C` [Example 26] was more than 1150 nM. Regarding `C[C@]12Cn3cnc(-c4ccc(F)cc4)c3C=C1CCC[C@@H]2[C@](C)(O)c1ccc(C(=O)O)s1` [Example 99], in experiment [2], the Emax came out at 43.9% and the EC50 was found to be 472 nM. On the same counts, the results for `CNC(=O)c1ccc([C@@](C)(O)[C@H]2CCCC3=Cc4c(-c5ccc(F)cc5)ncn4C[C@@]32C)s1` [Example 100] are 30.7% and 573 nM. The corresponding values for `CC1(C)COC2(CCCC3=Cc4c(-c5ccc(F)cc5)ncn4CC32C)OC1` (stereo not drawn) [Example 104, 1′-(4-Fluorophenyl)-5,5,5a′-trimethyl-5a′,7′,8′,9′-tetrahydro-5′H-spiro[[1,3]dioxane-2,6′-imidazo[1,5-b]isoquinoline]] are 32.4% and 877 nM.
